Data reported in a melting point compilation (Tetko et al.; mined from patent text by program, amines drawn as free bases though some values may be those of a salt).

| SMILES | melting point [°C] |
| --- | --- |
| CCc1ccc(CCOc2ccc(NC(=O)N(C)OC)cc2)nc1 | 90.5 to 92 |
| COc1cc2c(cc1OC)C(C)N(C(=O)Cc1cccc([N+](=O)[O-])c1)CC2 (stereo unspecified) | 120 to 121 |
| c1cn(CCc2ccc3c(c2)Cc2c(-c4ccsc4)n[nH]c2-3)cn1 | 160 to 165 |
| CCCOc1ccc2c(c1)C(=O)CCO2 | 50 to 52 |
| O=[N+]([O-])c1c(F)cc(Cl)c2nc(Cl)sc12 | 110 to 112 |
| O=[N+]([O-])c1cc(C(F)(F)F)cc2c1nc(C(F)(F)F)n2S(=O)(=O)c1ccccc1 | 183 to 185 |
| COc1ccc2c(c1)CCN2c1cccc(C#N)c1 | 92.5 to 93.5 |
| O=[N+]([O-])c1ccccc1Nc1cccc(Nc2ccc(C(F)(F)F)cc2[N+](=O)[O-])c1 | 95 to 98 |
| Nc1scc2c1C(=O)c1cc(Cl)c(Cl)cc1-2 | 272 |
| CCc1cccc(CC)c1NC(=O)NC1(c2cccs2)CCCCC1 | 208 to 210 |
| COc1ccc(C=CC(=O)CCCCc2ccccc2)cc1O | 70 to 75 |
| COc1nc(N)nc(-c2ccccc2)n1 | 159 to 160 |
| O=C(NCCCC(=O)N1CCCC1)c1cc(Br)no1 | 120 to 121 |
| NCCCCc1c[nH]c(-c2ccc(F)cc2)c1-c1ccncc1 | 185 to 187 |
| Cc1cc(N(C)Cc2ccc(-c3ccc(Cl)cc3)nc2)ccc1OCC(=O)O | 174 to 176 |
| COc1ccc(CN(C)CC(=O)Nc2ccc([N+](=O)[O-])cc2)cc1OC | 120 |
| Nc1cc(=O)nc(Nc2ccccc2)n1-c1ccccc1 | 202 to 206 |
| Cc1oc(-c2ccccc2)nc1CCOc1ccc(CCC#N)cn1 | 105 to 106 |
| CC1NC(=O)NN=C1c1ccc(NC(=O)Nc2ccccc2)cc1 (stereo unspecified) | > 140 |
| Nc1cc(N2CCCC2=O)c(Cl)cc1Cl | 168 to 170 |
| C=C(C)C(=O)NCCNC(=O)CCl | 126 to 128 |
| CCc1nc2c(cnn2CC)c(NC2CCOCC2)c1CNC(=O)c1cccc(C(=O)NCc2ccc(OC)c(-c3cccc(CN4CCNCC4)c3)c2)c1 | 138 to 140 |
| O=C1Nc2ccccc2Cc2sccc21 | 225 to 236 |
| C[C@@H](N1CCN(c2ccc(OC(F)(F)C(F)F)cc2)C1=O)[C@@]1(c2ccccc2F)CO1 | 148 to 149 |
| CC(=O)OC1(C)CN(C(=O)Nc2ccc(C(F)(F)F)cc2)N=C1c1ccc(Cl)cc1 (stereo unspecified) | 92 to 96 |
| CCc1nc(=O)n(C)c2sccc12 | 156 |

| SMILES | melting point [°C] |
| --- | --- |
| COC(=O)c1cc(C(=O)NCC(=O)O)cc([N+](=O)[O-])c1 | 142 to 143 |
| Cc1nc(-n2cnn(Cc3ccc(F)cc3)c2=O)sc1CO | 164 to 166 |
| CCOC(=O)Cc1ccc(N[C@@H](CCC(N)=O)C(=O)O)cc1 | 180 |
| O=[N+]([O-])c1cccc(OC2CCCCO2)c1O (stereo unspecified) | 72 to 73 |
| CCCn1nc(SC2CCC(CC(=O)O)CC2)c(C(=O)O)c1Cc1cc2c(cc1Cl)OCO2 (stereo unspecified) | 178 |
| CC(=O)Oc1cc2oc(=O)cc(CSc3ccccc3C(=O)O)c2cc1OC(C)=O | 216 to 218 |
| Cc1cccc2c1CCn1ncnc1C2=C1CCN(C)CC1 | 150 |
| CC(C)(O)C1C(=O)N2C(C(=O)OCc3ccccc3)=C(Sc3ccccc3)CC12 (stereo unspecified) | 133 to 136 |
| O=C(Oc1ccc(/C=c2\[nH]c(=O)/c(=C/c3ccccc3)[nH]c2=O)nc1)c1ccncc1 | 262 to 264 |
| Nc1cc(=O)n(Cc2ccccc2C(F)(F)F)[nH]1 | 184 |
| OCCCc1cnoc1-c1ccc(F)c(Br)c1 | 57 to 58 |
| O=C1Nc2ccccc2C1=Cc1cccs1 | 208 to 210 |
| O=C(Cc1ccncc1)c1ccc(F)cc1 | 90 to 91 |
| COc1nc(C)c(C(C)=O)cc1NC(=O)N1CCN(c2cccc(C)c2C)CC1 | 173 to 174 |
| CSc1nsc(NC(=O)Oc2ccccc2)c1C#N | 244 to 245 |
| CC(C)C(C)CCC(C)C1CC(=O)C2=C3C(=O)CC4CC(OC(=O)c5ccccc5)CCC4(C)C3CCC21C (stereo unspecified) | 176 to 177 |
| O=c1ccc2ccc(OCCCCN3CCCN(c4cccc(Cl)c4Cl)CC3)cc2[nH]1 | 55 to 57 |
| COP(=O)(OC)C(=O)Cc1ccccc1 | 117 to 122 |
| O=C(NC1CC2CCC1C2)n1cc(F)c(=O)[nH]c1=O (stereo unspecified) | 252 to 255 |
| Cc1ccc(S(=O)(=O)n2c(I)cc3cc(F)cnc32)cc1 | 158 |
| CCCc1cc(OC)c(OC)cc1Cc1cnc(N)nc1N | 166 to 167 |
| OCC1OC(n2cnc3c(NCc4ccccc4)nc(Cl)nc32)CC1O (stereo unspecified) | 147 |
| O=C(Nc1ccc(F)cc1)c1cccc(Cl)n1 | 98 |
| CN(C)CCCSc1ccc2ccc(N)nc2n1 | 164 |
| CC(=O)Nc1nc(Cl)c(NC=O)c(N[C@@H]2C=C[C@H](CO)C2)n1 (relative stereo) | 194 to 195 |
| COc1ccc(S(N)(=O)=O)cc1C(=O)C(C)N=[N+]=[N-] (stereo unspecified) | 113 to 114 |

| SMILES | melting point [°C] |
| --- | --- |
| COc1cccc(CNC(=O)c2nc3ccc(OCC(=O)c4ccccc4)cc3c(=O)[nH]2)c1 | 168 to 169 |
| O=[PH](c1ccc(N2CCCC2)cc1)c1ccc(N2CCCC2)cc1 | 199 |
| CC(C)(C)OCC1CN(c2ccc3ccccc3c2)C(=O)O1 (stereo unspecified) | 112 to 113 |
| C#CC1N(C(=O)Oc2ccccc2)c2ccc(OCc3ccccc3[N+](=O)[O-])cc2C23OC12CCCC3O (stereo unspecified) | 207 to 209 |
| COc1ccc(-c2cnn3c(N)c(-c4ccc(F)c(Cl)c4)c(C)nc23)cc1 | 224 to 227 |
| O=C(OCCOC(c1ccccc1)(c1ccccc1)c1ccccc1)Oc1ccc([N+](=O)[O-])cc1 | 136 to 141 |
| O=C1c2cccc(O)c2CC12CCCCC2 | 162 to 164 |
| CCCSc1sc(C(=O)OCC)c2c1-c1nc(-c3ccccc3)sc1CC2 | 125 to 126 |
| O=[N+]([O-])c1cc(C2=NOC(c3cc(C(F)(F)F)cc(C(F)(F)F)c3)(C(F)(F)F)C2)ccc1-n1cnnn1 (stereo unspecified) | 173 to 175 |
| Cc1cc(C)c2c(c1O)CCC2=O | 152 to 154 |
| COCCNC(=O)c1nc2cc(NC(=O)c3c(C(=O)N4CCC4)cnn3C)ccn2n1 | 159 to 161 |
| COC(c1ccccc1)C1CCCCCC(=Cc2ccccc2)C1=O (stereo unspecified) | 136 to 139 |
| CCOC(=O)c1cncc(C(=O)O)c1 | 180 to 182 |
| COCC[C@H]1CN(C2=Nc3ccccc3Nc3ccc(C(F)(F)F)cc32)CCN1C | 48 to 56 |
| CC(C)(C)OC(=O)N1CCn2c(c(C(N)=O)c(C#N)c2C2CCN(C(=O)OCc3ccccc3)CC2)C1 | 90 |
| Cc1cccc(N2CCN(CCCCc3ccc(C4CCC(=O)N4)cc3)CC2)c1 (stereo unspecified) | 114 to 116 |
| O=C(Nc1ccc(OCCN2CCOCC2)c2ccccc12)c1cc(F)cc(N2CCCCC2)c1 | 150 to 151 |
| O=C(O)c1cn(-c2ccc(F)cc2)c(-c2ccc(N=Cc3ccc([N+](=O)[O-])o3)cc2)cc1=O | 129 to 131 |
| N#CN1CCC2(CC1)CN(c1ccccc1F)c1ccccc12 | 131 to 132 |
| Cc1nnc(NCc2ccccc2)s1 | 140 |
| CCCCc1cc(C(O)=S)cc(N)c1Cc1ccccc1 | 136 to 138 |
| COc1c(O)cc(F)cc1-c1c(Cl)cccc1Cl | 65 to 67 |
| O=C1c2ccccc2C(=O)N1CC(Cc1ccc([N+](=O)[O-])cc1)=NO | 181 to 183 |
| O=C(c1cc(N2CCOCC2)ccn1)N(O)Cc1ccccc1 | 105 to 110 |
| N#Cc1ccc(S(=O)(=O)N2CCn3c(c(C(N)=O)c(Cl)c3-c3ccccc3)C2)cc1 | 205 to 206 |
| Nc1cc(N2C(=O)c3ccccc3C2=O)c(F)cc1Cl | 148 |

| SMILES | melting point [°C] |
| --- | --- |
| O=C1SC(Cc2ccc(OCCON=Cc3ccc4ccccc4n3)cc2)C(=O)N1C(c1ccccc1)(c1ccccc1)c1ccccc1 (stereo unspecified) | 127 to 130 |
| COc1cc(CCCC2OC(=O)NC2=O)ccc1OCc1coc(/C=C/c2ccccc2)n1 (stereo unspecified) | 178 to 179 |
| CS(=O)(=O)N[C@@H]1CCCC[C@H]1OCC(=O)O (relative stereo) | 119 to 121 |
| CC1(C)C(=O)Nc2cc3[nH]c(-c4cncnc4)nc3cc21 | 310 to 312 |
| CCOC(=O)CS(=O)(=O)Cl | 74 to 77 |
| CC(=O)Oc1ccc(C(=O)Oc2ccc(OC(=O)c3ccc(OC(C)=O)cc3)c(C)c2)cc1 | 128 to 130 |
| CCOc1cc2c(cc1OCC)C(C(S)(C#N)c1ccccc1)=NCC2 (stereo unspecified) | 118 to 119 |
| O=C(O)c1ccc(Cl)cc1Nc1cccc(Br)c1 | 205 to 207 |
| O=C(NO)[C@H](CNS(=O)(=O)c1ccc(OCCc2ccccc2)cc1)N1CCOCC1 | 77 |
| CCCCCOC(=O)Cc1nc(-c2ccc(F)cc2)oc1-c1ccsc1 | 78 to 80 |
| Cn1cncc1C(O)(c1ccc(Cl)cc1)c1ccc2[nH]c(=O)cc(-c3cccnc3)c2c1 (stereo unspecified) | > 250 |
| COc1ccc(C(C)N(C)CCCOc2ccc(S(=O)(=O)C3=C(C(C)C)N(C)CC3)cc2)cc1OC (stereo unspecified) | 100 to 102 |
| C=CCNc1nc(NC(C)CC)c2scc(C)c2n1 (stereo unspecified) | 91 to 92 |
| COC(=O)CCCCCCCCOC1OC(CO)C(OC2OC(C)C(O)C(O)C2O)C(O)C1NC(C)=O (stereo unspecified) | 145 to 146 |
| CC(C)(C)n1nc(-c2ccc(Cl)cc2)c2c(N)c(C#N)cnc21 | 213 to 215 |
| O=C(c1cc(=O)c2cc(O)ccc2[nH]1)N1CCC(O)(Cc2ccccc2)CC1 | 178 |
| Cc1ccc(C)c([PH](=O)O)c1 | 73 to 80 |
| Cc1ccc(C(=O)n2c3c(c4cc(C)ccc42)CC(C(=O)O)CC3)cc1 (stereo unspecified) | 200 to 203 |
| Cc1cc(C)cc(Nc2ccc(Nc3ccccc3)c3c2C(=O)c2ccccc2C3=O)c1 | 220 |
| Cc1ccccc1C1C(C#N)=C(c2cccs2)Nc2n[nH]cc21 (stereo unspecified) | 276 |
| CC1NCCc2ccccc21 (stereo unspecified) | 60 |
| COc1cc2c(cc1OC)[C@@H]1c3ccc(C)cc3C(=O)N(Cc3ccccc3)[C@H]1CC2 (relative stereo) | 154 to 157 |
| CC(=O)n1c(=O)n(-c2ccccc2)c(=O)n1C(C)=O | 169 to 170 |
